Data from article PMC8536830 (Current Biology, 2021).
Values joined by “and” are separate entries in the source; they are usually repeats but may differ in a detail not shown here. Equal entries are not always repeated.

Experiments:
Format in all cases: cell-based, C. elegans
LGC-56 [1] = target: T1, LGC-56 (Caenorhabditis elegans, UniProt Q10052); assay: Two-electrode voltage clamp, antagonist inhibitory dose response in Xenopus oocytes expressing LGC-56; conditions: for IC50: Xenopus oocytes, TEVC, agonist constant at its EC50, Hill equation, three-parameter slope; for Block of LGC-56 currents by antagonist: agonist at EC50
T1 sequence (Q10052 entry or part of it): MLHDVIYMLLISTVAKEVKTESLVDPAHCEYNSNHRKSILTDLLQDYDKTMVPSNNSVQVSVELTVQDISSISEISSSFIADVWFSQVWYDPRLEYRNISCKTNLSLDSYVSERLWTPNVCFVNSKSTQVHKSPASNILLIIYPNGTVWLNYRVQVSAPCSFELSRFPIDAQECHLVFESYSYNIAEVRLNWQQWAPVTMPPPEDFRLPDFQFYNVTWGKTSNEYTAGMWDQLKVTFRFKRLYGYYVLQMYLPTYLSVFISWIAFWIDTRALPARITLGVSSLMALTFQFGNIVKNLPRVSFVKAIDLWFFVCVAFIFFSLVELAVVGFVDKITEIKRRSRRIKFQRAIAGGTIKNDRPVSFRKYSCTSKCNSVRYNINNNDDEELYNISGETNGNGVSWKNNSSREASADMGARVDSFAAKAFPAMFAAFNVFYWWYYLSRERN
Method: (§1) We also investigated the antagonist profiles of three potential antagonists: mecamylamine; spiperone; and picrotoxin. These antagonists target different binding sites and have different specificity for vertebrate receptors.
(§2) Defolliculated Xenopus laevis oocytes were obtained from EcoCyte Bioscience (Dortmund, Germany) and maintained in ND96 (in mM: 96 NaCl, 1 MgCl2, 5 HEPES, 1.8 CaCl2, 2 KCl) solution at 16°C for 3-5 days.
(§3) 5'-capped cRNA was synthesized in vitro using the T3 mMessage mMachine transcription kit according to manufacturer’s protocol (Thermo Fischer Scientific, CA, USA). RNA was then purified using the GeneJET RNA purification kit (Thermo Fischer Scientific, CA, USA) prior to cRNA injection. Defolliculated Xenopus oocytes were placed individually into 96 well plates and injected with 50nL of 500ng/μL RNA using the Roboinject system (Multi Channel Systems GmbH, Reutlingen, Germany). When two constructs were injected the total RNA concentration remained 500ng/μL, with a 1:1 ratio of the components. Injected oocytes were incubated at 16°C in ND96 until the day of recording, typically between 3-5 days post injection.
(§4) Two-electrode voltage clamp recordings were carried out using the Robocyte2 recording system or a manual TEVC set up, using an OC-725D amplifier (Multi Channel Systems, Reutlingen, Germany) and paired with a custom-made recording chamber and agar bridges from reference and bath electrodes. Glass electrodes were pulled on a P-1000 Micropipette Puller (Sutter, Ca, USA) with a resistance ranging from 0.7-2 MΩ, pipettes, containing AgCl wires, were backfilled with a 3 M KCl solution for manual recordings and 1.5M KCl and 1 M acetic acid for Robocyte2 recordings. Oocytes were clamped at −60mV unless stated otherwise. Continuous recordings were taken during application of agonists and antagonists at 500 Hz. Data was recorded using WinWCP or RoboCyte2 control software, manual data was filtered at 10 Hz.
(§5) Dose response curves were calculated from the peak current during a 10 s agonist stimulation in ND96 solution, with a 60 s ND96 wash in between doses. Data was gathered over at least two occasions, using different batches of oocytes. Normalized dose response data was fitted to a nonlinear curve using a four parameters variable slope and the EC50 and Hill slope was calculated. All further recordings were carried out with the agonist at its EC50 concentration unless stated otherwise. Ion selectivity was determined using a voltage ramp protocol of 20mV/s ranging from −80mV to +60mV in the presence or absence of the primary agonist in three different solutions: ND96, NMDG (Na^+ free) and Na Gluconate (low Cl^-) solutions. Normalized ramp curves were fitted to a linear regression line and the x intercept was compared between solutions to calculate an average Erev from 4-5 oocytes. Antagonist dose response curves were calculated from the peak current during a 10 s agonist + antagonist stimulation in ND96 solution, with the agonist concentration remaining constant. Repeated agonist stimulus protocols were carried out by measuring the peak current during a 10 s agonist stimulation at three wash intervals, 10 s, 30 s and 60 s. Kinetic measurements were calculated from a 60 s agonist perfusion. Python scripts for TEVC analysis can be found at on GitHub at hiris25/TEVC-analysis-scripts and on Zenodo https://doi.org/10.5281/zenodo.5095181.
(§6) Dose response and antagonist response curves were generated using custom-built python scripts (key resources table), which combined data from multiple recordings and normalized data by calculating I/Imax for each oocyte. Normalized mean, SD and n numbers where then imported into GraphPad where data was plotted and EC50 or IC50 values were calculated by fitting to the Hill equation using either three or four parameter slopes to obtain the highest degree of fit.

LGC-54 [2] = target: T2, LGC-54 (Caenorhabditis elegans, UniProt O17041); assay: Two-electrode voltage clamp, antagonist inhibitory dose response in Xenopus oocytes expressing LGC-54; conditions: for IC50: Xenopus oocytes, TEVC, agonist constant at its EC50, Hill equation, three-parameter slope; for Block of LGC-54 currents by antagonist: agonist at EC50
T2 sequence (O17041 entry or part of it): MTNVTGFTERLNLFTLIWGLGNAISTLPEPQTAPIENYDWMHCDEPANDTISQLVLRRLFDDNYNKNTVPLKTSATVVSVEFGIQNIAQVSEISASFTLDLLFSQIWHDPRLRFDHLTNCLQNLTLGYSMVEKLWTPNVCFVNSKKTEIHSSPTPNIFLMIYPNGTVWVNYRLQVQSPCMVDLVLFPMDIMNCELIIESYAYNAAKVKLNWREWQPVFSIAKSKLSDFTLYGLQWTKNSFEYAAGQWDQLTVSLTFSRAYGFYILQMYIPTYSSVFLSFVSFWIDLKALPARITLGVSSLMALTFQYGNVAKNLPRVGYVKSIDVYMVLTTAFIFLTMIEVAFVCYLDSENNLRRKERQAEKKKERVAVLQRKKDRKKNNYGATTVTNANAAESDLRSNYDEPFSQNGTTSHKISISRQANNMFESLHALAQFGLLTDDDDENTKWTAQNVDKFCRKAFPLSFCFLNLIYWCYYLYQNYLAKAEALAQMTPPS
Method: as §1, §2, §3, §4, §5, §6

LGC-51/52 [3] = target: T3, LGC-51/52 (Caenorhabditis elegans, UniProt Q9NA62+X5LVB0); assay: Two-electrode voltage clamp, antagonist inhibitory dose response in Xenopus oocytes expressing LGC-51/52
T3 sequence (X5LVB0 entry or part of it): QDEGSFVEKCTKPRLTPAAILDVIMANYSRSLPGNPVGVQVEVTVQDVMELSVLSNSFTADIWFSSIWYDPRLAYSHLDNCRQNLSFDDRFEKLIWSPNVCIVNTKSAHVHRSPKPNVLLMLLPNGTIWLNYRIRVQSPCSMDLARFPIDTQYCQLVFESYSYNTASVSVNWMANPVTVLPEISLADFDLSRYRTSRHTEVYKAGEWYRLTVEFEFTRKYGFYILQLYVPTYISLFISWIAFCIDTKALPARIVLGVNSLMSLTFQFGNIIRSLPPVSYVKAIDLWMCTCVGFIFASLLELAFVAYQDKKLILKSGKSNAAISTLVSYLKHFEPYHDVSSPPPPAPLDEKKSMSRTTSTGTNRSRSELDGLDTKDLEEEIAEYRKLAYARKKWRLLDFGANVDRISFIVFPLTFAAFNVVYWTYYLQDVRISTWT
T3 sequence (Q9NA62 entry or part of it): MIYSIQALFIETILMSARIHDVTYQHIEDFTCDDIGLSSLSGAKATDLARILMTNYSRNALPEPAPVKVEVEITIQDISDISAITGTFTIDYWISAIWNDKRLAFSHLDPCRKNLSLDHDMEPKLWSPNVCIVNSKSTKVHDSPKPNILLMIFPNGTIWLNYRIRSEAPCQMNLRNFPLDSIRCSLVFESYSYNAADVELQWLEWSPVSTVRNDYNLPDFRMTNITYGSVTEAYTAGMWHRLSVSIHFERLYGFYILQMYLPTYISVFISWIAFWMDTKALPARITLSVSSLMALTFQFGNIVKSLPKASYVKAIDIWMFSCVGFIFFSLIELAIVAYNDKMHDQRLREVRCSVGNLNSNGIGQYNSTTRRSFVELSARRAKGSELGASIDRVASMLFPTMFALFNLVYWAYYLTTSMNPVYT
Method: as §1, §2
5'-capped cRNA was synthesized in vitro using the T3 mMessage mMachine transcription kit according to manufacturer’s protocol (Thermo Fischer Scientific, CA, USA). […]
(§7) Two-electrode voltage clamp recordings were carried out using the Robocyte2 recording system or a manual TEVC set up, using an OC-725D amplifier (Multi Channel Systems, Reutlingen, Germany) and paired with a custom-made recording chamber and agar bridges from reference and bath electrodes. […] Data was recorded using WinWCP or RoboCyte2 control software, manual data was filtered at 10 Hz.
Dose response curves were calculated from the peak current during a 10 s agonist stimulation in ND96 solution, with a 60 s ND96 wash in between doses. […] Normalized dose response data was fitted to a nonlinear curve using a four parameters variable slope and the EC50 and Hill slope was calculated. […] Kinetic measurements were calculated from a 60 s agonist perfusion. […]

LGC-52 = LGC-52 (Caenorhabditis elegans, UniProt Q9NA62); assay: Two-electrode voltage clamp, agonist-evoked currents in Xenopus oocytes expressing LGC-52; conditions: for EC50: Xenopus oocytes, TEVC, current normalized to Imax, Hill equation with variable slope, read-out: EC50, agonist-evoked dose response, LGC-52; for Channel activation in ligand screen, LGC-52: ligands screened at 100 μM, oocytes clamped at −60 mV
Sequence of LGC-52 (Q9NA62 entry or part of it): as above
Description: (§8) We aimed to deorphanize C. elegans LGICs without known ligands, focusing on 5 genes in the putative monoamine-gated group: lgc-50; lgc-51; lgc-52; lgc-54; and lgc-56 (previously named ggr-3). Using heterologous overexpression in Xenopus oocytes and two-electrode voltage clamp recordings, we measured channel activity evoked by application of 11 monoamines and other neurotransmitters.
as §2, §3, §4
as §5, with “Python scripts for TEVC analysis can be found at on GitHub at hiris25/TEVC-analysis-scripts and on Zenodo https://doi.org/10.5281/zenodo.5095181.” left out

LGC-54 [4] = target: T2, LGC-54; assay: Two-electrode voltage clamp, agonist-evoked currents in Xenopus oocytes expressing LGC-54; conditions: for EC50: Xenopus oocytes, TEVC, current normalized to Imax, Hill equation with variable slope, read-out: EC50, agonist-evoked dose response, LGC-54; for Channel activation in ligand screen, LGC-54: ligands screened at 100 μM, oocytes clamped at −60 mV
Description: as §8, §2, §3, §4, §5
Dose response and antagonist response curves were generated using custom-built python scripts (key resources table), which combined data from multiple recordings and normalized data by calculating I/Imax for each oocyte.

LGC-56 [5] = target: T1, LGC-56; assay: Two-electrode voltage clamp, agonist-evoked currents in Xenopus oocytes expressing LGC-56; conditions: for EC50: Xenopus oocytes, TEVC, current normalized to Imax, Hill equation with variable slope, read-out: EC50, agonist-evoked dose response, LGC-56; for Channel activation in ligand screen, LGC-56: ligands screened at 100 μM, oocytes clamped at −60 mV
Description: as §8, §2, §3, §4
as §5, with “Python scripts for TEVC analysis can be found at on GitHub at hiris25/TEVC-analysis-scripts and on Zenodo https://doi.org/10.5281/zenodo.5095181.” left out

LGC-51/52 [6] = target: T3, LGC-51/52; assay: Two-electrode voltage clamp, agonist-evoked currents in Xenopus oocytes co-expressing LGC-51 and LGC-52; conditions: for Agonist-induced peak current of LGC-51/52 heteromer compared with LGC-52: 1 mM TYR or DA; for EC50: Xenopus oocytes co-expressing LGC-51 and LGC-52, TEVC, Hill equation with variable slope, read-out: EC50, agonist-evoked dose response, LGC-51/52 heteromer
Method: as §2, §3, §4
as §5, with “Normalized ramp curves were fitted to a linear regression line and the x intercept was compared between solutions to calculate an average Erev from 4-5 oocytes.” left out, “Repeated agonist stimulus protocols were carried out by measuring the peak current during a 10 s agonist stimulation at three wash intervals, 10 s, 30 s and 60 s.” left out, “Python scripts for TEVC analysis can be found at on GitHub at hiris25/TEVC-analysis-scripts and on Zenodo https://doi.org/10.5281/zenodo.5095181.” left out

LGC-50 = target: T4, LGC-50 (Caenorhabditis elegans, UniProt P41849); assay: Two-electrode voltage clamp, agonist-evoked currents in Xenopus oocytes expressing LGC-50; conditions: ligands screened at 100 μM, oocytes clamped at −60 mV
T4 construct: lgc-50 ORF F […]; expressed in transfected cells; host or cells: Xenopus laevis oocytes injected with cRNA (plasmid pJML002, KSM: lgc-50 cDNA)
T4 sequence (P41849 20-491): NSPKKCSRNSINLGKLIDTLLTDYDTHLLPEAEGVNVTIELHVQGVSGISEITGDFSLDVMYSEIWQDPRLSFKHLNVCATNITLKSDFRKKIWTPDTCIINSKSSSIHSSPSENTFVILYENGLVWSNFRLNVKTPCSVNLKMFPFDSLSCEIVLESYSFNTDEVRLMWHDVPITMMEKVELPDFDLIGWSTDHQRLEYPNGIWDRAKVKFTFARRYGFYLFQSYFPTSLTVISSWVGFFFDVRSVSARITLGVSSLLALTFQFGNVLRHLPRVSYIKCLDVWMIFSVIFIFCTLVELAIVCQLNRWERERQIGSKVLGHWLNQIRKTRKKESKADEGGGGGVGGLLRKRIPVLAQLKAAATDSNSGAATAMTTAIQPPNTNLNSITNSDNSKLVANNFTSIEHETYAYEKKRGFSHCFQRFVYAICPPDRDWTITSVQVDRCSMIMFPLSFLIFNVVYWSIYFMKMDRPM
Description: as §8, §2
5'-capped cRNA was synthesized in vitro using the T3 mMessage mMachine transcription kit according to manufacturer’s protocol (Thermo Fischer Scientific, CA, USA). RNA was then purified using the GeneJET RNA purification kit (Thermo Fischer Scientific, CA, USA) prior to cRNA injection. […]
as §7
Dose response curves were calculated from the peak current during a 10 s agonist stimulation in ND96 solution, with a 60 s ND96 wash in between doses. […] Normalized dose response data was fitted to a nonlinear curve using a four parameters variable slope and the EC50 and Hill slope was calculated. […] Ion selectivity was determined using a voltage ramp protocol of 20mV/s ranging from −80mV to +60mV in the presence or absence of the primary agonist in three different solutions: ND96, NMDG (Na^+ free) and Na Gluconate (low Cl^-) solutions. […] Antagonist dose response curves were calculated from the peak current during a 10 s agonist + antagonist stimulation in ND96 solution, with the agonist concentration remaining constant. […] Kinetic measurements were calculated from a 60 s agonist perfusion. […]

## O=C(CCCN1CCC2(CC1)C(=O)NCN2c1ccccc1)c1ccc(F)cc1 [Spiperone, spiperone]
LGC-56 [1]
  IC50: 127 µM
  Block of LGC-56 currents by antagonist: partial block
LGC-54 [2]
  IC50: 81 µM
  Block of LGC-54 currents by antagonist: partial block
LGC-51/52 [3]; Xenopus oocytes, TEVC, agonist constant at its EC50, Hill equation, three-parameter slope
  IC50: 170 µM
LGC-51/52 [3]; agonist at EC50
  Block of LGC-51/52 currents by antagonist: partial block

## NCCc1ccc(O)c(O)c1 [dopamine]
LGC-52
  EC50: 0.51 µM
  Channel activation in ligand screen, LGC-52: activated
LGC-52; ratio of EC50 values
  EC50 lower for dopamine than tyramine, LGC-52: 100 fold
LGC-54 [4]
  EC50: 18 µM
  Channel activation in ligand screen, LGC-54: activated
LGC-56 [5]
  EC50: 642 µM
  Channel activation in ligand screen, LGC-56: activated
LGC-51/52 [6]
  Agonist-induced peak current of LGC-51/52 heteromer compared with LGC-52: no significant effect
  EC50: 0.81 µM

## CNC1(C)C2CCC(C2)C1(C)C (stereo not drawn) [mecamylamine]
LGC-56 [1]
  IC50: 1 µM
  Block of LGC-56 currents by antagonist: partially blocked
LGC-54 [2]
  IC50: 114 µM and > 100 µM
  Block of LGC-54 currents by antagonist: only a partial block

## NCC(O)c1ccc(O)cc1 (stereo not drawn) [octopamine]
LGC-56 [5]; 1 mM
  Response of LGC-56 at very high concentration: small response

## NCCc1c[nH]c2ccccc12 [tryptamine]
LGC-50
  Channel gating in ligand screen, LGC-50: gated

## NCCc1ccc(O)cc1 [tyramine]
LGC-52
  EC50: 54 µM
  Channel activation in ligand screen, LGC-52: activated
LGC-54 [4]
  EC50: 13 µM
  Channel activation in ligand screen, LGC-54: activated
LGC-56 [5]
  EC50: 70 µM
  Channel activation in ligand screen, LGC-56: activated
LGC-51/52 [6]
  Agonist-induced peak current of LGC-51/52 heteromer compared with LGC-52: significantly higher
  EC50: 4 µM

## picrotoxin
LGC-56 [1]
  IC50: 59 µM
  Block of LGC-56 currents by antagonist: large inhibition of currents
LGC-54 [2]
  IC50: 43 µM
  Block of LGC-54 currents by antagonist: large inhibition of currents
